Measured values: patent US20110165594A1, “SYSTEMIC MARKERS FOR ASTHMA AND ANALOGOUS DISEASES” (THE CLEVELAND CLINIC FOUNDATION, priority 2005, published 2011)

How the values were obtained:
Format in all cases: cell-based, human
BET1A cells [1] = experiment: Apoptosis detection by Annexin V binding
Procedure: Cell Culture. BET1A, a human bronchial epithelial cell line, was cultured in serum-free Lechner and […] medium (LHC-8, Biofluids, Inc., Rockville, Md.) with additives 0.33 nM retinoic acid, […] epinephrine and the antibiotic combination, 1% penicillin/streptomycin, on plates pre-coated with coating media containing 29 μg/ml collagen (Vitrogen: Collagen Corp., Palo Alto, Calif.), 10 μg/ml bovine serum albumin (Biofluids, Rockville, Md.), and 10 μg/ml fibronectin (Calbiochem, La Jolla, Calif.) for 5 min. HAEC obtained by bronchial brushing were cultured in serum-free Lechner and […] media (LHC8) on plates pre-coated with coating media ([…], et al., Cancer Res 1988, 48:1904-1909). […] T. Baker Inc, […], et al., FASEB J 2001, 15:70-78), or hydrogen peroxide (Sigma, St. Louis, Mo.) in a dose and time dependent manner. 293T cells, a clone of 293 (human embryonic kidney fibroblast cells) that expresses the Simian virus 40 large-T antigen, were maintained in DMEM (Invitrogen) with 10% FCS. Cell Viability and Apoptosis detection. Cell viability was assessed by bright-field microscopy using a trypan blue dye (0.4%) exclusion method. The mean survival was determined by examining four different low power fields. Annexin V binding was used to detect apoptotic cells as previously described (Trautmann A, et al., J Allergy Clin Immunol 2001, 108:839-846). Briefly, cells were incubated with 1.0 μg/mL annexin V-FITC and 2.5 μg/mL propidium iodide (BD Biosciences, Palo Alto, Calif.). The stained cells were analyzed with a FACScan (Becton Dickinson, San Jose, Calif.), using an argon ion laser at 488 nm and emission recorded at 520 nm with band pass and short pass filters. Gating was done on the forward angle and right angle light scatter only to exclude debris and cell clumps. […] The RFI was calculated using the ratio of the linearized mean fluorescence of the cell populations, as provided by the CellQuest software (Becton Dickinson, San Jose, Calif.). Apoptotic cells are identified as the Annexin positive-PI negative fraction.

SOD = SOD activity (rate of cytochrome c reduction) in BET1A cells
Procedure: Cell Culture. BET1A, a human bronchial epithelial cell line, was cultured in serum-free Lechner and […] medium (LHC-8, Biofluids, Inc., Rockville, Md.) with additives 0.33 nM retinoic acid, […] epinephrine and the antibiotic combination, 1% penicillin/streptomycin, on plates pre-coated with coating media containing 29 μg/ml collagen (Vitrogen: Collagen Corp., Palo Alto, Calif.), 10 μg/ml bovine serum albumin (Biofluids, Rockville, Md.), and 10 μg/ml fibronectin (Calbiochem, La Jolla, Calif.) for 5 min. HAEC obtained by bronchial brushing were cultured in serum-free Lechner and […] media (LHC8) on plates pre-coated with coating media ([…], et al., Cancer Res 1988, 48:1904-1909). […] T. Baker Inc, […], et al., FASEB J 2001, 15:70-78), or hydrogen peroxide (Sigma, St. Louis, Mo.) in a dose and time dependent manner. 293T cells, a clone of 293 (human embryonic kidney fibroblast cells) that expresses the Simian virus 40 large-T antigen, were maintained in DMEM (Invitrogen) with 10% FCS. Antioxidant assays. Bronchial epithelial cells (BET1A) exposed to 5 µM 2-ME for 30 min to 24 h, or serum of asthmatic individuals, were assayed for glutathione (GSH), glutathione peroxidase (GPx), catalase, and SOD activity. SOD activity was determined by the rate of reduction of cytochrome c, with one unit (U) of SOD activity defined as the amount of SOD required to inhibit the rate of cytochrome c reduction by 50% (Nebot C, et al., Anal Biochem 1993, 214:442-451). The final reaction volume was 3 ml and included 50 mM potassium phosphate buffer, […] cytochrome c, 0.05 mM xanthine, and a 0.1 mM EDTA solution. Xanthine oxidase (Sigma, St Louis, Mo.) was added at a concentration sufficient to induce a 0.020 per minute change in absorbance at 550 nm. GSH levels were measured as previously described (Comhair S A, et al., Am J Respir Crit Care Med 1999, 159:1824-1829).

MnSOD = MnSOD silencing by siRNA in 293T cells, caspase-3 activity; details: 48 h after transfection
Procedure: Caspase-3-like enzyme activity. Caspase-3-like activity was measured by a […] assay (BD PharMingen, San Diego, Calif.). This assay measures active caspase-3 binding to fluorogenic Ac-DEVD-AMC substrate and its cleavage to release the fluorescent AMC. AMC fluorescence is quantified by UV spectrofluorometry with an excitation wavelength of 380 nm and an emission wavelength range of 420-460 nm.
Transfection of siRNA MnSOD. MnSOD siRNA was synthesized by Ambion (Austin, Tex.). The sense and antisense MnSOD siRNA were 5-GGAACAACAGGCCUUAUUCtt-3 (sense) and 5-GAAUAAGGCCUGUUGUUCCtt-3 (antisense). Silencer™ Negative control #1 siRNA (siRNA control) (Ambion, Austin Tex.) was used as a control. 293T-cells, at 60% confluence in […] plates, were transfected in serum-free medium (DMEM, Invitrogen, Carlsbad Calif.) by using lipofectamine reagent (Invitrogen, Carlsbad Calif.) according to the manufacturer's instructions. For the silencing experiments, cells were transfected with […] of MnSOD siRNA or with 50 nM of Silencer™ Negative Control #1 siRNA. 48 h after transfection, cells were washed, trypsinized and harvested for evaluation of mRNA, protein expression, and caspase-3 activity.

BET1A-cells = experiment: Tyrosine nitrated proteins in BET1A cells (anti-nitrotyrosine Western, 2D gel)
Procedure: Western Blot Assay. Airway epithelial cells freshly obtained by bronchoscopic brushing from asthmatics and healthy controls, or BET1A cells, were suspended in buffer (3 mM dithiothreitol, 5 μg/ml aprotinin, 1 μg/ml leupeptin and pepstatin A, 0.1 mM PMSF, 1% NP40 and 40 mM Hepes pH 7.5) and cell lysate prepared by three cycles of freeze/thaw. Total protein was measured by using the Coomassie protein assay (Pierce, Rockford, Ill.). Whole cell lysate protein was denatured and reduced by treatment with buffer containing 0.05 M Tris (pH 6.8), 1% sodium dodecyl sulfate (SDS), 10% glycerol, 0.00125% bromphenol blue and 0.5% β mercaptoethanol for 3 minutes at 95° C. Total protein was separated by electrophoresis on a 10% SDS-polyacrylamide gel, and then electrophoretically transferred onto nitrocellulose (NitroBind EP4HY315F5, Fisher Scientific, Pittsburgh, Pa.) or Polyvinylidene Difluoride membrane (Pierce, Rockford, Ill.) for 1 h at 4° C. Membranes were incubated with blocking buffer [5% non fat dry milk in TBS (20 mM Tris-HCl (pH 7.0) and 137 mM NaCl) with 0.1% Tween] for 1 h at room temperature to block nonspecific binding and then probed with a primary antibody in blocking buffer overnight at 4° C. […]
Two dimentional gel electrophoresis. […] Total Protein was measured by using Coomassie protein assay (Pierce, Rockfod, Ill.). […]

GSH = experiment: Intracellular GSH in BET1A cells
Procedure: Antioxidant assays. Bronchial epithelial cells (BET1A) exposed to 5 µM 2-ME for 30 min to 24 h, or serum of asthmatic individuals, were assayed for glutathione (GSH), glutathione peroxidase (GPx), catalase, and SOD activity. SOD activity was determined by the rate of reduction of cytochrome c, with one unit (U) of SOD activity defined as the amount of SOD required to inhibit the rate of cytochrome c reduction by 50% (Nebot C, et al., Anal Biochem 1993, 214:442-451). The final reaction volume was 3 ml and included 50 mM potassium phosphate buffer, […] cytochrome c, 0.05 mM xanthine, and a 0.1 mM EDTA solution. Xanthine oxidase (Sigma, St Louis, Mo.) was added at a concentration sufficient to induce a 0.020 per minute change in absorbance at 550 nm. GSH levels were measured as previously described (Comhair S A, et al., Am J Respir Crit Care Med 1999, 159:1824-1829).

BET1A cells [2] = experiment: Cell viability by trypan blue exclusion
Procedure: BET1A, a human bronchial epithelial cell line, was cultured in serum-free Lechner and LaVeck medium (LHC-8, Biofluids, Inc., Rockville, Md.) with additives 0.33 nM retinoic acid, 2.75 mM epinephrine and the antibiotic combination, 1% penicillin/streptomycin, on plates pre-coated with coating media containing 29 μg/ml collagen (Vitrogen: Collagen Corp., Palo Alto, Calif.), 10 μg/ml bovine serum albumin (Biofluids, Rockville, Md.), and 10 μg/ml fibronectin (Calbiochem, La Jolla, Calif.) for 5 min.

caspase-3 = experiment: Caspase-3-like enzyme activity in BET1A cells; details: time dependent
Procedure: Cell Culture. BET1A, a human bronchial epithelial cell line, was cultured in serum-free Lechner and LaVeck medium (LHC-8, Biofluids, Inc., Rockville, Md.) with additives 0.33 nM retinoic acid, […] epinephrine and the antibiotic combination, 1% penicillin/streptomycin, on plates pre-coated with coating media containing 29 μg/ml collagen (Vitrogen: Collagen Corp., Palo Alto, Calif.), 10 μg/ml bovine serum albumin (Biofluids, Rockville, Md.), and 10 μg/ml fibronectin (Calbiochem, La Jolla, Calif.) for 5 min. HAEC obtained by bronchial brushing were cultured in serum-free Lechner and LaVeck media (LHC8) on plates pre-coated with coating media (Reddel R R, et al., Cancer Res 1988, 48:1904-1909). To evaluate oxidant stress and antioxidants in apoptotic events, BET-1A cells were stimulated at 70% confluence with SOD inhibitor, 2-Methoxyoestradiol (2-ME) (Sigma, St Louis, Mo.), or pyrogallol, a superoxide generating compound (J. T. Baker Inc, Phillipsburg, N.J.) (Comhair S A, et al., FASEB J 2001, 15:70-78), or hydrogen peroxide (Sigma, St. Louis, Mo.) in a dose and time dependent manner. […]
Caspase-3-like enzyme activity. Caspase-3-like activity was measured by a […] assay (BD PharMingen, San Diego, Calif.). […] AMC fluorescence is quantified by UV spectrofluorometry with an excitation wavelength of 380 nm and an emission wavelength range of 420-460 nm.

BAX = BAX levels by Western blot; details: BET1A cells
Procedure: (§1) Cell Culture. BET1A, a human bronchial epithelial cell line, was cultured in serum-free Lechner and LaVeck medium (LHC-8, Biofluids, Inc., Rockville, Md.) with additives 0.33 nM retinoic acid, […] epinephrine and the antibiotic combination, 1% penicillin/streptomycin, on plates pre-coated with coating media containing 29 μg/ml collagen (Vitrogen: Collagen Corp., Palo Alto, Calif.), 10 μg/ml bovine serum albumin (Biofluids, Rockville, Md.), and 10 μg/ml fibronectin (Calbiochem, La Jolla, Calif.) for 5 min. HAEC obtained by bronchial brushing were cultured in serum-free Lechner and LaVeck media (LHC8) on plates pre-coated with coating media (Reddel R R, et al., Cancer Res 1988, 48:1904-1909). To evaluate oxidant stress and antioxidants in apoptotic events, BET-1A cells were stimulated at 70% confluence with SOD inhibitor, 2-Methoxyoestradiol (2-ME) (Sigma, St Louis, Mo.), or pyrogallol, a superoxide generating compound (J. T. Baker Inc, Phillipsburg, N.J.) (Comhair S A, et al., FASEB J 2001, 15:70-78), or hydrogen peroxide (Sigma, St. Louis, Mo.) in a dose and time dependent manner. 293T cells, a clone of 293 (human embryonic kidney fibroblast cells) that expresses the Simian virus 40 large-T antigen, were maintained in DMEM (Invitrogen) with 10% FCS.
(§2) Western Blot Assay. […] Total protein was measured by using the Coomassie protein assay (Pierce, Rockford, Ill.). […]

SOD protein = SOD protein in treated BET1A cells
Procedure: as §1, §2

OO [H202, hydrogen peroxide]
apoptosis (BET1A cells [1]): increased apoptosis
SOD activity (SOD): loss of SOD activity

Oc1cccc(O)c1O [pyrogallol]
apoptosis (BET1A cells [1]): increased apoptosis
SOD activity (SOD): loss of SOD activity

MnSOD siRNA: siRNA, sense 5-GGAACAACAGGCCUUAUUCtt-3, antisense 5-GAAUAAGGCCUGUUGUUCCtt-3, synthesized by Ambion (sense GGAACAACAGGCCUUAUUCTT; antisense GAAUAAGGCCUGUUGUUCCTT; 3' tt overhangs, chemistry not given here, further chemistry not given here)
caspase-3 activation (MnSOD): caspase-3 activation

COc1cc2c(cc1O)CC[C@@H]1[C@@H]2CC[C@]2(C)[C@@H](O)CC[C@@H]12 [2-ME, 2-Methoxyoestradiol]
apoptotic cells (Annexin V staining) (BET1A cells [1]): increase in apoptotic cells as early as 17 h
tyrosine nitrated proteins (BET1A-cells): increase in tyrosine nitrated proteins
intracellular GSH (GSH): rapid depletion of intracellular GSH
blocked the activity of SOD (SOD; 5 μM, 3 h, p=0.004): up to 86%
cell viability (trypan blue) (BET1A cells [2]): decrease in cell viability
caspase-3 activity (caspase-3): significantly increased
BAX levels (BAX): upregulation of BAX levels
SOD protein (SOD protein): did not cause a decrease of SOD protein
